Results as given in article PMC9683861 (Journal of Molecular Biology, 2022).
Changes are numbered by the printed parent chain. Entries after “also recorded” stand apart in the source; their conditions may differ. Non-standard residues stand in square brackets, D forms with d. Residues, ends and D or L forms follow the SMILES beside them. No end group written: not given here. *: point of attachment. FITC = O=C1OC2(c3ccc(O)cc3Oc3cc(O)ccc32)c2ccc(NC(=S)*)cc21; pT = C[C@@H](OP(=O)(O)O)[C@H](N)C(=O)O; pS = N[C@@H](COP(=O)(O)O)C(=O)O

Legend:
14-3-3γ (gamma) = 14-3-3γ (gamma) (Homo sapiens, UniProt P61981); format: binding
14-3-3γ = 14-3-3γ (Homo sapiens, UniProt P61981); format: binding
14-3-3σ (sigma) = 14-3-3σ (sigma) (Homo sapiens, UniProt P31947); format: binding
[1] = test system: all seven human 14-3-3 isoforms; format: binding
crystal structure = target: the molecule itself; assay: crystal structure
[2] = target: T1, Untagged full-length human 14-3-3γ (human, UniProt P61981 1-247); assay: fluorescence polarisation
T1 sequence: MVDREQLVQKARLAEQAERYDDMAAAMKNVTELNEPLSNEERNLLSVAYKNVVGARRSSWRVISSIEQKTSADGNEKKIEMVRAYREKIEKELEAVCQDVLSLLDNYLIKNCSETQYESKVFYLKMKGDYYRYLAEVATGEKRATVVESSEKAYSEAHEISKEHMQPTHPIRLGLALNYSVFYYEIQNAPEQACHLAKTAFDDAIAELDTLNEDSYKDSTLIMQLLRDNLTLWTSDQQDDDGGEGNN

14-3-3σ (sigma), sequence (P31947 whole entry, canonical isoform): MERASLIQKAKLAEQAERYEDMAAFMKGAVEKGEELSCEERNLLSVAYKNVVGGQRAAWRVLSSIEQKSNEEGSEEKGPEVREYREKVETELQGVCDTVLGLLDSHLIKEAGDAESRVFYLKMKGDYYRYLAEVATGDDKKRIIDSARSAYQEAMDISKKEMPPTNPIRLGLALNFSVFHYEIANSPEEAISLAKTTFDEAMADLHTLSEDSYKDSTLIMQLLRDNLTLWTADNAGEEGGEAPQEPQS

O=C1OC2(c3ccc(O)cc3Oc3cc(O)ccc32)c2ccc(N=C=S)cc21 [free FITC, fluorescein 5-isothiocyanate, reference compound]
Binding to MBP-14-3-3 (free FITC control) (14-3-3γ (gamma)): did not show significant binding

WLRRApSAPLPGLK [pB6]
Displacement of FITC-labeled peptide from 14-3-3 (14-3-3γ): could be disrupted

CSCC[C@H](NC(=O)[C@H](CCCNC(=N)N)NC(=O)[C@H](C)NC(=O)[C@@H]1CCCN1C(=O)[C@H](CO)NC(=O)[C@@H](NC(=O)CNC(=O)[C@H](CCCNC(=N)N)NC(=O)[C@H](CO)NC(=O)[C@H](CO)NC(=O)[C@H](Cc1c[nH]c2ccccc12)NC(=S)Nc1ccc2c(c1)C(=O)OC21c2ccc(O)cc2Oc2cc(O)ccc21)[C@@H](C)OP(=O)(O)O)C(=O)O [pT205] ({FITC}-WSSRG[pT]SPARM-OH)
Ratio: affinity of 14-3-3σ to pT205 versus pS197 peptide (14-3-3σ (sigma)): ~3 times tighter
Selectivity coefficient (KD pS197 / KD pT205), gamma (14-3-3γ (gamma)): ~7
Affinity preference [1]: preferred over the pS197-motif by all seven human 14-3-3 isoforms; also recorded: consistently tighter affinity than the pS197 fragment
KD ratio between weakest (14-3-3σ/pS197) and strongest (14-3-3γ/pT205) pair [1]: ~10 fold
Order of affinity over the 14-3-3 isoforms [1]: gamma (γ) > eta (η) > beta (β) > epsilon (ε) > zeta (ζ) > tau (τ) > sigma (σ)
Ratio of the average KD values pS197/pT205 [1]: 4.3 fold

B1: C-terminally truncated human 14-3-3σ (residues 1–231) Clu3 mutant (75EEK77 → 75AAA77) (domain or fragment)
chain: MERASLIQKAKLAEQAERYEDMAAFMKGAVEKGEELSCEERNLLSVAYKNVVGGQRAAWRVLSSIEQKSNEEGSAAAGPEVREYREKVETELQGVCDTVLGLLDSHLIKEAGDAESRVFYLKMKGDYYRYLAEVATGDDKKRIIDSARSAYQEAMDISKKEMPPTNPIRLGLALNFSVFHYEIANSPEEAISLAKTTFDEAMADLHTLSEDSYKDSTLIMQLLRDNLTLWT
stoichiometry N (crystal structure): 2

B2: C-terminally truncated human 14-3-3σ (residues 1–231) Clu1 mutant (159KKE161 → 159AAA161) (domain or fragment)
chain: B1 chain with A75E, A76E, A77K, K159A, K160A, E161A
stoichiometry N (crystal structure): 2

WLRRA[pS]APLPGLK [Unlabeled phosphopeptide of human HSPB6 (pB6) WLRRApSAPLPGLK]
binding result [2]: binds
